Measured values reported in US8937039B2, “Peptide-based peroxidase inhibitors and methods of using same” (The Medical College of Wisconsin, Inc., priority 2009, dated 2015).
“Also recorded” adds a separate entry of the source. Residues, ends and D or L forms follow the SMILES beside them.

Columns and labels:
[1] = biological target: T1, MPO (Homo sapiens, UniProt P05164); assay: MPO-catalyzed HOCl production (taurine/TMB assay); assay type: biochemical; parameters: purchased Lee Biosolutions (St. Louis, Mo.)
T1 sequence (P05164 49-745): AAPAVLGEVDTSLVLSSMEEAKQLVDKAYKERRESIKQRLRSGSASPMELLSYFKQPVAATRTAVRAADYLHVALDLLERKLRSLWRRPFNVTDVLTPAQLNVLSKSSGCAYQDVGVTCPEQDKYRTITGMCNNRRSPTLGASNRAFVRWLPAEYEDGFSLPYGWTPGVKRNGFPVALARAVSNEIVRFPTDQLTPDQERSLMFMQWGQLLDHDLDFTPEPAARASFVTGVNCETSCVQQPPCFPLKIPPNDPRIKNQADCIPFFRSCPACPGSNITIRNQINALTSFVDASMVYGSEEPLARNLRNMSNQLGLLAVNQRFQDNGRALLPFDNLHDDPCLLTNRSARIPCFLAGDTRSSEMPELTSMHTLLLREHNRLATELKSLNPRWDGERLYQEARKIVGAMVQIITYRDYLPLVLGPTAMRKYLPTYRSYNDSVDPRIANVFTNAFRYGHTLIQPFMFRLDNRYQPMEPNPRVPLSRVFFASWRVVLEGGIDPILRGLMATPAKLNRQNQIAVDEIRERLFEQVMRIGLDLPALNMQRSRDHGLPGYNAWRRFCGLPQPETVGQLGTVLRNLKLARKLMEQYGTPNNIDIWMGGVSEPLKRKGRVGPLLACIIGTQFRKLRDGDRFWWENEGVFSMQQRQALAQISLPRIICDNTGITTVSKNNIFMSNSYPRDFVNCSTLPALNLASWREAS
Procedure: MPO-mediated HOCl Production. MPO (20 nM) was incubated with H2O2 (50 μM), NaCl (150 mM), taurine (5 mM) and increasing concentrations of KYC in phosphate buffer (100 mM, pH 7.4) which also contained diethylene triamine pentaacetic acid (DTPA, 100 μM) to prevent non-specific, divalent metal cation oxidation for 30 min. Reactions were halted by addition of catalase. Chlorotaurine was quantified using the 3,3-,5,5-tetramethylbenzidine (TMB) assay. Briefly, 400 μL of reaction solution was mixed with 100 μL of 2 mM TMB, 100 μM NaI containing 10% dimethylformamide (DMF) in 400 mM acetate buffer (pH 5.4). After 5 min, absorbance (650 nm) was recorded on a UV/Vis spectrophotometer (Agilent Model 8453).
MPO-catalyzed HOCl Production: MPO (20 nM) was incubated with H2O2 (50 μM), NaCl (150 mM), taurine (5 mM) and increasing concentrations of KYC in a phosphate buffer (100 mM, pH 7.4) containing diethylene triamine pentaacetic acid (DTPA, 100 μM) to prevent non-specific, divalent metal cation oxidation for 30 min. Reactions were halted by addition of catalase (2,000 units/mL). Chlorotaurine was quantified using the TMB assay (66). Briefly, 400 μL of reaction solution was mixed with 100 μL of 2 mM TMB, 100 μM NaI containing 10% dimethylformamide (DMF) in 400 mM acetate buffer (pH 5.4). After 5 min, absorbance (650 nm) was recorded on a UV/Vis spectrophotometer (Agilent Model 8453).

[2] = biological target: T2, NADPH oxidase (NOX) (Homo sapiens, UniProt P04839); assay: PMA-stimulated HL-60 cell superoxide formation (SOD-inhibitable cytochrome C reduction); assay type: cell-based; settings: cytochrome C assay
T2 construct: host or cells: HL-60 cells stimulated with PMA
T2 sequence (P04839 2-570 limits assumed): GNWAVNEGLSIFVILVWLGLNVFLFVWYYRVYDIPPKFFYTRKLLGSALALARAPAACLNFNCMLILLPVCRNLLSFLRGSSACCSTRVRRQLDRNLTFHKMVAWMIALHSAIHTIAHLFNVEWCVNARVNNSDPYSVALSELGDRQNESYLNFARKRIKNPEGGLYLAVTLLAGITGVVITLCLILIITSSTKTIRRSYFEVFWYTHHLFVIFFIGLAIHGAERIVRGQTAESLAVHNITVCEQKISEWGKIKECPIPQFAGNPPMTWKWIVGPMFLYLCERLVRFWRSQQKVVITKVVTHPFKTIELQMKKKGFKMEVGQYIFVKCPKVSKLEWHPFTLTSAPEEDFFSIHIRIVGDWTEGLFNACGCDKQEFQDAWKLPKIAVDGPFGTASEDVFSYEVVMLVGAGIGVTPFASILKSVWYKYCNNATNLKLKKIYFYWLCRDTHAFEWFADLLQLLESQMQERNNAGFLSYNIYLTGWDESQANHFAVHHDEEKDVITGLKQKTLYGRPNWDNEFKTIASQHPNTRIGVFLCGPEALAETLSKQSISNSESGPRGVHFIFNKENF
T2 sequence (P13498 2-195 partner limits assumed): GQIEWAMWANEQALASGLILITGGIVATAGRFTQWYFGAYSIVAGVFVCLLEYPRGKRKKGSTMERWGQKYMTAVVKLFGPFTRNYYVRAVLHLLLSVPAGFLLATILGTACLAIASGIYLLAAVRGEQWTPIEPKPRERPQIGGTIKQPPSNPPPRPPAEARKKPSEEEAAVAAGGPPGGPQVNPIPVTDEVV
Procedure: PMA-induced Superoxide Anion Formation. HL-60 cells were cultured in RPMI 1640 medium containing 10% FCS (passage 20-50). HL-60 cells were harvested by centrifugation (1000 rpm, 10 min), washed 2× with phosphate buffer (10 mM, pH 7.4) with NaCl (138 mM), KCl (2.67 mM), CaCl2 (0.901 mM), MgCl2 (0.493 mM) and glucose (1 mg/ml) to remove culture medium. The HL-60 cells (6×10^6/0.5 ml) were re-suspended in DPBS. After stimulation with PMA (10 μM), the HL-60 cells were incubated with cytochrome C (40 μM) with or without superoxide dismutase at 37° C. for 30 min. The reaction was stopped by centrifugation. Cytochrome C reduction was measured at 550 nm on a UV-Vis spectrophotometer (Agilent, Model 8453).
PMA-stimulated HL-60 cell O2.^− Formation: HL-60 cells were harvested by centrifugation (1000 rpm, 10 min), washed twice with DPBS with glucose to remove culture medium. The HL-60 cells (1.2×10^7/ml) were re-suspended in DPBS with glucose. After stimulation with PMA (10 μM), the HL-60 cells were incubated with cytochrome C (40 μM) with or without superoxide dismutase (500 units/mL) at 37° C. for 10 min and then the HL-60 cells were removed by centrifugation. Cytochrome C reduction in supernatants was measured at 550 nm using a UV-Vis spectrophotometer (Agilent, Model 8453).

CC(=O)N[C@@H](CCCCN)C(=O)N[C@@H](Cc1ccc(O)cc1)C(=O)N[C@@H](CS)C(N)=O [KYC, N-acetyl Lysyltyrosylcysteine Amide] (Ac-Lys-Tyr-Cys-NH2)
Effect on MPO HOCl production at equimolar concentration (in words) ([1]; 12.5 μM): comparable to that of tryptophan; also recorded: significantly more effective | MPO-dependent HOCl production at 25 μM (in words) ([1]; 25 μM peptide): completely inhibited; also recorded: completely ablated | IC50 ([1]; MPO 20 nM, H2O2 50 μM, NaCl 150 mM, taurine 5 mM, 30 min, read-out: IC50 for inhibition of MPO-catalyzed HOCl formation): ~7 µM | O2.− production in PMA-stimulated HL-60 cells (in words) [2]: neither KYC nor KYC disulfide have any significant effect; also recorded: Neither KYC nor KYC disulfide had any significant effect
